# Several values for one entry are separate records, joined by “and”; a condition that tells them apart may be missing. Identical values can stand only once.
# Key:
# GR complex = experiment: [35S]TBPS binding assay (inhibition of [35S]TBPS binding, cerebral cortex P2 homogenate); parameters: species or system rat; details: for IC50: 2 nM [35S]TBPS, rat cerebral cortex P2 homogenate; for IMAX: maximum inhibition of [35S]TBPS binding
# Description: We performed several experiments to determine the nature of the modulation of [^35S]TBPS as affected by the compounds of the invention.
# These procedures were performed as follows:
# Brains from male Sprague-Dawley rats were removed immediately following sacrifice and the cerebral cortices dissected over ice. […] Briefly, the cortices were gently homogenized in 0.32 M sucrose followed by centrifugation at 1000 x g for 10 minutes. The supernatant was collected and centrifuged at 9000 x g for 20 minutes. The resultant P2 pellet was suspended as a 10% (original wet weight/volume) suspension in 50 mM Na/K phosphate buffer (pH 7.4) 200 mM NaCl to form the homogenate.
# One hundred microliter […] aliquots of the P2 homogenate (0.5 milligrams (mg) protein) were incubated with 2 nanomolar (nM) [^35S]TBPS (70-110 curies/millimole; New England Nuclear, Boston, MA) in the presence or absence of the naturally occurring steroids or their synthetic derivatives to be tested. The tested compounds were dissolved in dimethylsulfoxide (Baker Chem. Co., Phillipsbury, NJ) and added to the incubation mixture in 5 µL aliquots. The incubation mixture was brought to a final volume of 1 mL with buffer. Non-specific binding was defined as binding in the presence of […] TBPS. The effect and specificity of GABA (Sigma Chem. Co., St. Louis, MO) was evaluated by performing all assays in the presence of GABA plus (+)bicuculline (Sigma Chem. Co.). maintained at 25°C for 90 minutes (steady state conditions) were terminated by rapid filtration through glass fiber filters (No. 32, Schleicher and Schuell, Keene, NH). Filter-bound radioactivity was quantitated by liquid scintillation spectrophotometry.
# Various compounds were screened to determine their potential as modulators of [^35S]TBPS binding in vitro. These assays were performed in accordance with the above discussed procedures. […] It is an indication of a compound's in vitro potency. Maximum inhibition is an indication of a compound's in vitro efficacy.
# [1] = tested on: metrazol induced convulsions; experiment: animal or person; assay type: in vivo, mice; details: for responders at 10 mg/kg: Mus musculus, 10 min, 10 minutes prior to metrazol (85 mg/kg), read-out: % Protected
# Description: Experiments were also performed to determine the physiological relevance of neuroactive steroid and GABA receptor interactions by assessing the ability of the compounds of and used in the invention to prevent metrazol induced convulsions in mice. Mice were injected with various doses of the test compounds of the invention, 10 minutes prior to the injection of metrazol. The time to onset of myoclomis (presence of forelimb clonic activity) induced by metrazol was determined by observing each mouse for a period of 30 minutes. […] Table 6: Antimetrazol Activity of Neuroactive Steroids in Mice
# The anticonvulsant tests are similar to that described above. […] The number of animals with tonic and/or clonic convulsions was recorded. In the maximal electroshock test, 50 mA of current at 60 Hz was delivered through corneal electrodes for 200 msec to induce tonic seizure. The ability of compounds to abolish the tonic component was defined as the endpoint. General CNS depression potential was determined by a rotorod test 10 minutes after the injection of compounds where the number of mice staying on a rotating (6 rpm) rod for 1 minute in one of the three trials was determined. […] Table 7. Anticonvulsant Activity of Exemplified Neuroactive Steroids and those of Selected Clinically Useful Anticonvulsants in Mice
Molecule,IC50 (GR complex),IMAX (GR complex),other results
CC(=O)C1CCC2C3CCC4CC(O)(C#CCC(C)O)CCC4(C)C3CCC12C (racemic) [3β-[4'(R/S) hydroxypentynyl]-3α-hydroxy-5β-pregnan-20-one],71 nM and 94 nM,103% and 104%,responders at 10 mg/kg ([1]; IP): 87.5%
CCCC(CCC)C(=O)OC1CCC2(C)C(CCC3C2CCC2(C)C(C(C)=O)CCC32)C1 (stereo not drawn) [Example 4-Heptyl],–,–,"% Protection ([1]; 60 mg/kg, IP, 4 hour): 16 (4 hour) %"
CC(=O)C1CCC2C3CCC4CC(O)(C#CC(C)O)CCC4(C)C3CCC12C (racemic) [3β-[3'(R/S)-hydroxy-1'-butynyl]-3α-hydroxy-5α-pregnan-20-one],144 nM and 202 nM,99% and 102%,responders at 10 mg/kg ([1]; IP): 50%
CC(=O)OC1CCC2(C)C(CCC3C2CCC2(C)C(C(C)=O)CCC32)C1 (stereo not drawn) [Methyl],–,–,"% Protection ([1]; 60 mg/kg, 1hr, IP): 25%"
CC(=O)C1CCC2C3CCC4CC(OC(=O)C(C)C)CCC4(C)C3CCC12C (stereo not drawn) [Example 2-Propyl],–,–,"% Protection ([1]; 60 mg/kg, 1hr, IP): 75%"
CC(=O)[C@H]1CC[C@H]2[C@@H]3CC[C@H]4C[C@H](OC(=O)c5ccccc5)CC[C@]4(C)[C@H]3CC[C@]12C [Phenyl],–,–,"% Protection ([1]; 60 mg/kg, 1hr, IP): 33%"
CC(=O)C1CCC2C3CCC4CC(OC(=O)c5cccnc5)CCC4(C)C3CCC12C (stereo not drawn) [Example 3-Pyridyl],–,–,"% Protection ([1]; 60 mg/kg, IP, 20hour): 50(20hour) %"
CCC(=O)OC1CCC2(C)C(CCC3C2CCC2(C)C(C(C)=O)CCC32)C1 (stereo not drawn) [Ethyl],–,–,"% Protection ([1]; 60 mg/kg, 1hr, IP): 75%"
COc1ccc(C(=O)OC2CCC3(C)C(CCC4C3CCC3(C)C(C(C)=O)CCC43)C2)cc1 (stereo not drawn) [4-Methoxyphenyl],–,–,"% Protection ([1]; 60 mg/kg, 1hr, IP): 17%"
CCCCC(=O)OC1CCC2(C)C(CCC3C2CCC2(C)C(C(C)=O)CCC32)C1 (stereo not drawn) [Butyl],–,–,"% Protection ([1]; mouse, in vivo): 33%"
CC12CCC3C4CCC(O)(C(F)(F)F)CC4CCC3C1CCC2C(=O)CSS(=O)(=O)[O-].[Na+] (stereo not drawn) [Sodium S-(3α-hydroxy-3β-trifluoromethyl-5β-19-norpregnan-20-on-21-yl) thiosulfate],325 nM,98%,"% Protected ([1]; IP, 40 mg/kg, water): 37.5%"
CC(=O)OCCCC#C[C@@]1(O)CC[C@@]2(C)[C@H](CC[C@@H]3[C@@H]2CC[C@]2(C)[C@@H](C(C)=O)CC[C@@H]32)C1 [3β-(5'-Acetoxy-1'-pentynyl)-3α-hydroxy-5β-pregnan-20-one],96 nM,98%,responders at 10 mg/kg ([1]; IP): 12.5%
CC(=O)[C@H]1CC[C@H]2[C@@H]3CC[C@@H]4C[C@@](O)(C#CCCCCO)CC[C@]4(C)[C@H]3CC[C@]12C [3β-(6-hydroxy-1-hexynyl)-3α-hydroxy-5β-pregnan-20-one],222 nM,99%,–
CC(=O)c1ccc(C#C[C@@]2(O)CC[C@@]3(C)[C@@H](CC[C@@H]4[C@@H]3CC[C@]3(C)[C@@H](C(C)=O)CC[C@@H]43)C2)cc1 [3β-(4'-Acetylphenylethynyl)-3α-hydroxy-5α-pregnan-20-one],5 nM,93%,–
C[C@]12CC[C@](O)(C#CCCO)C[C@H]1CC[C@@H]1[C@@H]2CC[C@]2(C)[C@@H](C(=O)Cn3cnnn3)CC[C@@H]12 [3α-hydroxy-3β-(4-hydroxybutyn-1-yl)-21-(tetrazol-1-yl)-5β-pregnan-20-one],93 nM,101%,–
CC(=O)[C@H]1CC[C@H]2[C@@H]3CC[C@@H]4C[C@@](O)(C#Cc5ccc(C(F)(F)F)cc5)CC[C@]4(C)[C@H]3CC[C@]12C [3α-hydroxy-3β-(4'-trifluoromethylphenylethynyl)-5β-pregnan-20-one],52 nM,87%,–
"CC(C)CCC[C@@H](C)[C@H]1CC[C@H]2[C@@H]3CC=C4C[C@@H](O)CC[C@]4(C)[C@H]3CC[C@]12C [Cholesterol, reference compound]",–,0%,–
CC(=O)[C@H]1CC[C@H]2[C@@H]3CC[C@@H]4C[C@@](O)(C#CCCCC#N)CC[C@]4(C)[C@H]3CC[C@]12C [3β-(5-Cyano-1-pentynyl)-3α-hydroxy-5β-pregnan-20-one],158 nM,100%,responders at 10 mg/kg ([1]; IP): 25%

Molecule,IC50 (GR complex),IMAX (GR complex),other results
"C[C@]12CC[C@H]3[C@@H](CC[C@@H]4C[C@@](O)(C#CCCO)CC[C@@H]43)[C@@H]1CC[C@@H]2C(=O)Cn1nccn1 [3α-hydroxy-3β-(4-hydroxybutyn-1-yl)-21-(2H-1,2,3-triazol-2-yl)-5β-19-norpregnan-20-one]",56 nM,93%,–
"CC(=O)[C@H]1CC[C@H]2[C@@H]3CCC4=CC(=O)CC[C@]4(C)[C@H]3CC[C@]12C [Progesterone, reference compound]",5200 nM,100%,–
CC(=O)C1CCC2C3CCC4CC(OC(=O)c5ccc(Cl)cc5)CCC4(C)C3CCC12C (stereo not drawn) [4-Chlorophenyl],–,–,"% Protection ([1]; 60 mg/kg, 1hr, IP): 50%"
"C[C@]12CC[C@@H](O)C[C@H]1CC[C@@H]1[C@@H]2CC[C@]2(C)[C@@H](C(=O)Cn3cnnn3)CC[C@@H]12 [3α-hydroxy-21-(1'H-1,2,3,4-tetrazol-1'-yl)-5β-pregnan-20-one]",227 nM,60%,–
CC12CC(N3CCOCC3)C(O)CC1CCC1C2CCC2(C)C(C(=O)Cn3cncn3)CCC12 (stereo not drawn) [3α-Hydroxy-2β-morpholinyl-21-[1'2'4'-triazolyl)]-5α-pregnan-20-one],1550 nM,97%,–
C[C@]12CC[C@@H](O)C[C@H]1CC[C@@H]1[C@@H]2CC[C@]2(C)[C@@H](C(=O)Cn3cnc4ncncc43)CC[C@@H]12 [3α-hydroxy-21-(7'H-purin-7'-yl)-5β-pregnan-20-one],430 nM,71%,–
CCCC(=O)OC1CCC2(C)C(CCC3C2CCC2(C)C(C(C)=O)CCC32)C1 (stereo not drawn) [Propyl],–,–,"% Protection ([1]; 60 mg/kg, 1hr, IP): 75%"
3β-(4'-Aminophenyl)ethynyl-3β-hydroxy-5β-20-one,22500 nM,103%,–
CC(=O)[C@H]1CC[C@H]2[C@@H]3CC[C@@H]4C[C@@](O)(C#CCCO)CC[C@]4(C)[C@H]3CC[C@]12C [3β-(4'-hydroxy-1'-butynyl)-3α-hydroxy-5β-pregnan-20-one],13 nM,103%,–
CC(=O)[C@H]1CC[C@H]2[C@@H]3CC[C@@H]4C[C@@](O)(CCc5ccccc5)CC[C@]4(C)[C@H]3CC[C@]12C [3α-Hydroxy-3β-(2'-phenylethyl)-5β-pregnan-20-one],135 nM,98%,–
C[C@]12CC[C@@H](O)C[C@H]1CC[C@@H]1[C@@H]2CC[C@]2(C)[C@@H](C(=O)Cn3cnc4cncnc43)CC[C@@H]12 [3α-hydroxy-21-(9'H-purin-9'-yl-5β-pregnan-20-one],69 nM,59%,–
C[C@]12CC[C@@H](O)C[C@@H]1CC[C@@H]1[C@@H]2CC[C@]2(C)[C@@H](C(=O)Cn3cccn3)CC[C@@H]12 [3α-hydroxy-21-(1'-pyrazolyl)-5α-pregnan-20-one],100 nM,98%,–
CC(=O)OCC#C[C@@]1(O)CC[C@@]2(C)[C@H](CC[C@@H]3[C@@H]2CC[C@]2(C)[C@@H](C(C)=O)CC[C@@H]32)C1 [3β-(3'-acetoxy-1'-propynyl)-3α-hydroxy-5β-pregnan-20-one],–,104%,–
CC(=O)OCC(=O)c1ccc(C#C[C@@]2(O)CC[C@@]3(C)[C@H](CC[C@@H]4[C@@H]3CC[C@]3(C)[C@@H](C(C)=O)CC[C@@H]43)C2)cc1 [3α-hydroxy-3β-(4'-acetoxyacetylphenylethynyl)-5β-pregnan-20-one],171 nM,91%,–
C[C@]12CC[C@@H](O)C[C@H]1CC[C@@H]1[C@@H]2CC[C@]2(C)[C@@H](C(=O)Cn3cnc([N+](=O)[O-])c3)CC[C@@H]12 [3a-hydroxy-21-[1H-(4-nitro)imidazol-1-yl)-5β-pregnan-20-one],267 nM,71%,–
CC(=O)[C@H]1CC[C@H]2[C@@H]3CC[C@@H]4C[C@@](O)(CCc5ccccc5O)CC[C@]4(C)[C@H]3CC[C@]12C [3β-(2'-Hydroxyphenyl)ethyl-3α-hydroxy-5β-pregnan-20-one],101 nM,83%,–
CC(=O)[C@H]1CC[C@H]2[C@@H]3CC[C@@H]4C[C@@](O)(C#CCO)CC[C@]4(C)[C@H]3CC[C@]12C [3β-(3'-hydroxy-1'-propynyl)-3α-hydroxy-5β-pregnan-20-one],137 nM,93%,–

# Source: patent EP1038880B1, “Androstanes and pregnanes for allosteric modulation of GABA receptor” (priority 1994, dated 1995)
